Test results: paper PMC2841005 (Developmental and comparative immunology, 2010)

Legend:
Format in all cases: cell-based
[1] = system: Gram-negative and Gram-positive bacterial strains; assay: Antibacterial activity against the panel of strains, broth micro-dilution assay
bacteria = assay: Antibacterial test of the first synthetic 27-residue repeat peptide; conditions: data not shown
E. coli O157:H7 = assay: MIC, broth micro-dilution assay

| Sequence | Antibacterial activity against the bacterial strains tested (in words) [1] | Killing of bacteria (in words) (bacteria) | Activity against E. coli O157:H7 (in words) (E. coli O157:H7) |
| --- | --- | --- | --- |
| ESGNEPLWLYQGDNIPKAPSTAEHPFLPSIIDDVKFNPDRRYA [LP2A] | did not affect the bacterial growth | – | – |
| RSVETLASQEHLSSLPMDSQETLLRGT | – | did not kill any bacteria | – |
| ESGNEPLWLYQGDNIPKAPSTAEHPFLPSIIDDVKFNPDRRYAR [LP2] | did not exhibit antimicrobial activity | – | – |
| SVETLASQEHLSSLPMDSQETLLRGT [LP4A] | inactive | – | – |
| SVETLASQEHLSSLPMDSQETLLRGTR [LP4] | no activity | – | – |
| SLGTPDHYHGGRHSISRGSQSTGPTHPGYNRRNA [LP3A] | inactive | – | inactive |
| SLGTPDHYHGGRHSISRGSQSTGPTHPGYNRRNAR [LP3] | active against bacteria | – | low activity |
